Experimental data: PMC3641821 (2011)

Assays:
[1] = test system: D4, d[5'-A3G5C5T3-3'] (DNA, duplex) AAAGGGGGCCCCCTTT; assay: ITC; conditions: 100 mM KCl; 10 mM sodium cacodylate, 0.5 mM EDTA, pH 6.8, 25 °C
[2] = test system: D1, d[5'-G3G5C5C3-3'] (DNA, duplex) GGGGGGGGCCCCCCCC; assay: ITC; conditions: 100 mM KCl; 10 mM sodium cacodylate, 0.5 mM EDTA, pH 6.8, 25 °C
[3] = test system: D11, d[5'-(AT)8-3'] (DNA, duplex) ATATATATATATATAT; assay: ITC; conditions: 100 mM KCl; 10 mM sodium cacodylate, 0.5 mM EDTA, pH 6.8, 25 °C
[4] = test system: D5, d[5'-A12-x-T12-3'] (intramolecular duplex) (DNA, hairpin, x = hexaethylene glycol linker between positions 12 and 13) AAAAAAAAAAAATTTTTTTTTTTT; assay: ITC; conditions: 100 mM KCl; 10 mM sodium cacodylate, 0.5 mM EDTA, pH 6.8, 25 °C; site 1 of 2
[5] = test system: D8, d[5'-A2GAG2AGAGA2GAGAG2AGA2-3'] 22-mer duplex (DNA, duplex) AAGAGGAGAGAAGAGAGGAGAA/TTCTCCTCTCTTCTCTCCTCTT; assay: ITC; conditions: 100 mM KCl; 10 mM sodium cacodylate, 0.5 mM EDTA, pH 6.8, 25 °C; site 1 of 2
[6] = test system: poly(dA.dT)2 (DNA, polymer) AT; assay: UV melting; conditions: K+ 100 or 150 mM; Na+ 10 mM (cacodylate); rbd 10; per base
[7] = test system: D2, d[5'-G2A6T6C2-3'] (DNA, duplex) GGAAAAAATTTTTTCC; assay: ITC; conditions: 100 mM KCl; 10 mM sodium cacodylate, 0.5 mM EDTA, pH 6.8, 25 °C; site 1 of 2
[8] = test system: D3, d[5'-G3A5T5C3-3'] (DNA, duplex) GGGAAAAATTTTTCCC; assay: ITC; conditions: 100 mM KCl; 10 mM sodium cacodylate, 0.5 mM EDTA, pH 6.8, 25 °C; site 1 of 2
[9] = test system: D6, d[5'-A30T30-3'] (DNA, duplex) AAAAAAAAAAAAAAAAAAAAAAAAAAAAAATTTTTTTTTTTTTTTTTTTTTTTTTTTTTT; assay: ITC; conditions: 100 mM KCl; 10 mM sodium cacodylate, 0.5 mM EDTA, pH 6.8, 25 °C; site 1 of 2
[10] = test system: D9, d[5'-G3(AT)5C3-3'] (DNA, duplex) GGGATATATATATCCC; assay: ITC; conditions: 100 mM KCl; 10 mM sodium cacodylate, 0.5 mM EDTA, pH 6.8, 25 °C

NC[C@@H]1O[C@H](O[C@H]2[C@@H](O)[C@H](O[C@@H]3[C@@H](O)[C@H](N)C[C@H](N)[C@H]3O[C@H]3O[C@H](CN)[C@@H](O)[C@H](O)[C@H]3N)O[C@@H]2CO)[C@H](N)[C@@H](O)[C@@H]1O
K1 [1]: 2.02 ± 0.20 × 10^5 M^-1
K1 [2]: 3.80 ± 0.18 × 10^5 M^-1

NC[C@@H]1O[C@H](O[C@H]2[C@@H](O)[C@H](O[C@@H]3[C@@H](O)[C@H](N)C[C@H](N)[C@H]3O[C@H]3O[C@H](CN)[C@@H](O)[C@H](O)[C@H]3N)O[C@@H]2CSCCNC(=S)NCCOCCOCCNC(=S)NCCSC[C@H]2O[C@@H](O[C@@H]3[C@@H](O)[C@H](N)C[C@H](N)[C@H]3O[C@H]3O[C@H](CN)[C@@H](O)[C@H](O)[C@H]3N)[C@H](O)[C@@H]2O[C@H]2O[C@@H](CN)[C@@H](O)[C@H](O)[C@H]2N)[C@H](N)[C@@H](O)[C@@H]1O
K1 [3]: 5.88 ± 2.90 × 10^7 M^-1
K1 [4]: 28.2 ± 12.0 × 10^7 M^-1
K1 [5]: 1.78 ± 1.00 × 10^7 M^-1
K1 [1]: 7.75 ± 1.70 × 10^5 M^-1
ΔTm [6]: ~ 11 °C
K1 [7]: 12.9 ± 3.4 × 10^7 M^-1
K1 [8]: 25.3 ± 10.0 × 10^7 M^-1
K1 [9]: 129.2 ± 54.1 × 10^7 M^-1
K1 [10]: 0.54 ± 0.15 × 10^7 M^-1
K1 [2]: 0.27 ± 0.02 × 10^7 M^-1
